# Data published in patent US6730480B1, “Sphingosine kinase enzyme” (Johnson & Johnson Pharmaceutical Research and Development …, priority 1999, dated 2004).
# Entries after “also recorded” stand apart in the source; their conditions may differ.
# Target: T1, native sphingosine kinase (human placenta SK1) (Homo sapiens, UniProt Q9NYA1)
# T1 construct: from tissue; host or cells: human placenta
# Test: Sphingosine kinase enzyme assay with native SK purified from human placenta
# Assay type: biochemical
# Settings: not given
# Experimental: Sphingosine kinase activity was routinely determined using D-erythro-sphingosine and [γ^32P]ATP as substrates, essentially as previously described (Olivera et al., 1998) with some modifications. […] Reactions were terminated and sphingosine-1-phosphate extracted by the addition of 700 μl of chloroform/methanol/HCl (100:200:1. v/v), followed by vigorous mixing, addition of 200 μp of chloroform and 200 μl of 2 M KCl, and phase separation by centrifugation. […] Sunnyvale, Calif.). One unit (U) of activity is defined as 1pmol of S1P formed per minute. […] Similarly, thermal stabilities were determined by assaying the residual activity after pre-incubation of the enzymes at various temperatures (4-80° C.) for 30 min at pH 7.4 (50 mM Tris/HCl containing 10% glycerol, 0.5 M NaCl and 0.05% Triton X-100). Substrate kinetics were analysed using Michaelis-Menten kinetics with a weighted non-linear regression program (Easterby, 1996). […] In both cases the data were analysed by non-linear regression. The effect of metal ions on the activity of the native and recombinant sphingosine kinases were determined by assaying the activity under standard conditions in the presence of various metal ions or EDTA at 10 mM. […] PC, phosphatidylcholine; PS phosphatidylserine; PE, […]; PI, phosphatidylinositol.
# T1 sequence (Q9NYA1 whole entry): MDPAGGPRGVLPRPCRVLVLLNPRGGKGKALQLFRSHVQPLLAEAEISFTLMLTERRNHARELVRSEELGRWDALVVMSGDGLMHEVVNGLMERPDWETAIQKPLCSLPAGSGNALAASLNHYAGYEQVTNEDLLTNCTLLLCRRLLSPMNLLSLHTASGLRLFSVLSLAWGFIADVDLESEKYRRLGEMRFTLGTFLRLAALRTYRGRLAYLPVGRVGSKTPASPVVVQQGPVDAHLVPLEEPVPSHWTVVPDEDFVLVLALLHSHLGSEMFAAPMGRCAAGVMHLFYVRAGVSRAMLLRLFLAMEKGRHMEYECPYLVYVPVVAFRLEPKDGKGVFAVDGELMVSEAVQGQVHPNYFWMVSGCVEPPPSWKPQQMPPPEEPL
row,Structure (SMILES),Inhibition of sphingosine kinase (kind of inhibition)
1,Nc1ncnc2c1ncn2[C@@H]1O[C@H](COP(=O)(O)OP(=O)(O)O)[C@@H](O)[C@H]1O [ADP],weak competitive inhibition
2,"CCCCCCCCCCCCC/C=C/[C@@H](O)[C@H](CO)[N+](C)(C)C [N,N,N-trimethylsphingosine]",competitive inhibition
3,CCCCCCCCCCCCCCC[C@H](O)[C@@H](N)CO (racemic) [DL-threo-dihydrosphingosine],competitive inhibition
4,CCCCCCCCCCCCC/C=C/[C@@H](O)[C@H](CO)NC(C)=O [N-acetylsphingosine],No inhibition
5,CCCC[C@@H](C)[C@@H](OC(=O)C[C@@H](CC(=O)O)C(=O)O)[C@H](C[C@@H](C)C[C@H](O)CCCC[C@@H](O)C[C@H](O)[C@H](C)N)OC(=O)C[C@@H](CC(=O)O)C(=O)O [Fumosin B1],No inhibition

# Same assay, conditions: ADP 0.1 to 5 mM, with respect to ATP
row,Structure (SMILES),Ki
1,Nc1ncnc2c1ncn2[C@@H]1O[C@H](COP(=O)(O)OP(=O)(O)O)[C@@H](O)[C@H]1O [ADP],1100 ± 300 µM

# Same assay, conditions: Triton X-100 mixed micelles
row,Structure (SMILES),kcat
1,"CCCCCCCCCCCCC/C=C/[C@@H](O)[C@@H](N)CO [Sphingosine, D-erythro-Sphingosine]",50 S^−1
2,"CCCCCCCCCCCCCCC[C@@H](O)[C@@H](N)CO [Dihydrosphingosine, D-erythro-dihydrosphingosine]",35 S^−1

# Same assay, conditions: bulk solution concentration
row,Structure (SMILES),Ki
1,"CCCCCCCCCCCCC/C=C/[C@@H](O)[C@H](CO)[N+](C)(C)C [N,N,N-trimethylsphingosine]",4.6 ± 1 µM

# Same assay, conditions: inhibitor 2 to 50 μM, mol % of Triton X-100
row,Structure (SMILES),Ki (mol %)
1,"CCCCCCCCCCCCC/C=C/[C@@H](O)[C@H](CO)[N+](C)(C)C [N,N,N-trimethylsphingosine]",0.12 ± 0.03 mol %

# Same assay, conditions: metal ions or EDTA at 10 mM
row,Structure (SMILES),Metal ion requirement (sphingosine kinase activity)
1,[Mg+2] [Mg^2+],highest activity
2,[Cu+2] [Cu^2−],did not support sphingosine kinase activity
3,[Mn+2] [Mn^2−],somewhat lower activity

# Same assay, conditions: substrate kinetics, bulk solution concentration
row,Structure (SMILES),Km
1,"CCCCCCCCCCCCCCC[C@@H](O)[C@@H](N)CO [Dihydrosphingosine, D-erythro-dihydrosphingosine]",20 ± 2 µM

# Same assay, conditions: substrate kinetics, mol % of Triton X-100 (0.25% w/v)
row,Structure (SMILES),Km (mol %)
1,"CCCCCCCCCCCCC/C=C/[C@@H](O)[C@@H](N)CO [Sphingosine, D-erythro-Sphingosine]",0.35 ± 0.05 mol %
2,"CCCCCCCCCCCCCCC[C@@H](O)[C@@H](N)CO [Dihydrosphingosine, D-erythro-dihydrosphingosine]",0.50 ± 0.05 mol %

# Same assay, conditions: substrates at 100 μM in 0.25% Triton X-100, relative to sphingosine
row,Structure (SMILES),Substrate specificity (phosphorylation by the enzyme)
1,"CCCCCCCCCCCCC/C=C/[C@@H](O)[C@@H](N)CO [Sphingosine, D-erythro-Sphingosine]",greatest activity
2,"CCCCCCCCCCCCC/C=C/[C@@H](O)[C@H](CO)[N+](C)(C)C [N,N,N-trimethylsphingosine]",not phosphorylated
3,CCCCCCCCCCCCCCC[C@H](O)[C@@H](N)CO (racemic) [DL-threo-dihydrosphingosine],not phosphorylated; also recorded: No phosphorylation
4,CCCCCCCCCCCCC/C=C/[C@@H](O)[C@H](CO)NC(C)=O [N-acetylsphingosine],not phosphorylated; also recorded: No phosphorylation
5,"CCCCCCCCCCCCCCC[C@@H](O)[C@@H](N)CO [Dihydrosphingosine, D-erythro-dihydrosphingosine]",greatest activity

# Same assay, conditions: substrates at 100 μM in 0.25% Triton X-100, relative to sphingosine, listed as N,N,N, -trimethylsphingosinei
row,Structure (SMILES),Substrate specificity (phosphorylation by the enzyme)
1,"CCCCCCCCCCCCC/C=C/[C@@H](O)[C@H](CO)[N+](C)(C)C [N,N,N-trimethylsphingosine]",No phosphorylation

# Target: T2, recombinant human sphingosine kinase (Homo sapiens, UniProt Q9NYA1)
# T2 construct: The full length SPHK cDNA cloned into pGEX4T2 was transformed into E. coli BL21; GST (N, cleaved yes); made in house; host or cells: E. coli BL21
# Test: Sphingosine kinase enzyme assay with recombinant human SK expressed in E. coli
# Assay type: biochemical
# Settings: not given
# Experimental: Sphingosine kinase activity was routinely determined using D-erythro-sphingosine and [γ^32P]ATP as substrates, essentially as previously described (Olivera et al., 1998) with some modifications. […] Reactions were terminated and sphingosine-1-phosphate extracted by the addition of 700 μl of chloroform/methanol/HCl (100:200:1. v/v), followed by vigorous mixing, addition of 200 μp of chloroform and 200 μl of 2 M KCl, and phase separation by centrifugation. […] Sunnyvale, Calif.). One unit (U) of activity is defined as 1pmol of S1P formed per minute. The full length SPHK cDNA cloned into pGEX4[…]. coli BL21. Overnight cultures (100 ml) of transformed isolates were grown with shaking (200 rpm) at 30° C. in Superbroth (20 g/L glucose, 35 g/L tryptone, 20 g/L yeast extract, 5 g/L NaCl, pH 7.5) medium containing ampicillin (100 mg/L). The cultures were diluted 1:20 in fresh medium and grown at 30° C. with shaking to an OD600 of 0.6-0.7. Expression of the glutathione-s-transferase (GST)-coupled sphingosine kinase (GST-SK) was then induced by addition of 0.1 mM isopropyl-β-D-thiogalactoside and further incubation of the cultures at 30° C. for 3 h. After this time the bacterial cells were then harvested by centrifugation at 6,000 g for 20 min at 4° C. and resuspended in 20 ml of buffer B containing 250 mM NaCl. the cells were then lysed with lysozyme at a final concentration of 0.3 mg/ml for 15 min at 25° C. followed by sonication, consisting of three cycles of 20 s ultrasonic pulses followed by one minute cooling. The lysate was then clarified by centrifugation at 50,000 g for 45 min at 4° C., followed by filtrating through 0.22 μm filters. To be filtered supernatant was then incubated with 0.2 volumes of 50% (w/v) glutathione-Sepharose 4B (Pharmacia) that was washed and pro-equilibrated with buffer B, for 60 min at 4° C. with constant mixing. After this time the mixture was poured into a glass chromatography column (10 mm diam.) and the beads (with bound GST-SK) washed with 10 column volumes of buffer B at 4° C. The GST-SK was then eluted from the column in 10 ml of buffer B containing 10 mM reduced glutathione. Cleavage of the GST away from sphingosine kinase was then performed by incubation with 20 μg (30 N.I.H. units) thrombin (Pharmacia) for 3 h at 25° C. The released sphingosine kinase was then purified by application of the cleavage mix to a calmodulin-Sepharose column and then a Mono-Q anion exchange column for the purification of the sphingosine kinase from human placenta. […] Similarly, thermal stabilities were determined by assaying the residual activity after pre-incubation of the enzymes at various temperatures (4-80° C.) for 30 min at pH 7.4 (50 mM Tris/HCl containing 10% glycerol, 0.5 M NaCl and 0.05% Triton X-100). Substrate kinetics were analysed using Michaelis-Menten kinetics with a weighted non-linear regression program (Easterby, 1996). […] In both cases the data were analysed by non-linear regression. The effect of metal ions on the activity of the native and recombinant sphingosine kinases were determined by assaying the activity under standard conditions in the presence of various metal ions or EDTA at 10 mM. […] PC, phosphatidylcholine; PS phosphatidylserine; PE, […]; PI, phosphatidylinositol.
# T2 sequence (Q9NYA1 whole entry): as above
row,Structure (SMILES),Inhibition of sphingosine kinase (kind of inhibition)
1,Nc1ncnc2c1ncn2[C@@H]1O[C@H](COP(=O)(O)OP(=O)(O)O)[C@@H](O)[C@H]1O [ADP],weak competitive inhibition
2,"CCCCCCCCCCCCC/C=C/[C@@H](O)[C@H](CO)[N+](C)(C)C [N,N,N-trimethylsphingosine]",competitive inhibition
3,CCCCCCCCCCCCCCC[C@H](O)[C@@H](N)CO (racemic) [DL-threo-dihydrosphingosine],competitive inhibition
4,CCCCCCCCCCCCC/C=C/[C@@H](O)[C@H](CO)NC(C)=O [N-acetylsphingosine],No inhibition
5,CCCC[C@@H](C)[C@@H](OC(=O)C[C@@H](CC(=O)O)C(=O)O)[C@H](C[C@@H](C)C[C@H](O)CCCC[C@@H](O)C[C@H](O)[C@H](C)N)OC(=O)C[C@@H](CC(=O)O)C(=O)O [Fumosin B1],No inhibition

# Same assay, conditions: ADP 0.1 to 5 mM, with respect to ATP
row,Structure (SMILES),Ki
1,Nc1ncnc2c1ncn2[C@@H]1O[C@H](COP(=O)(O)OP(=O)(O)O)[C@@H](O)[C@H]1O [ADP],900 ± 200 µM

# Same assay, conditions: Triton X-100 mixed micelles
row,Structure (SMILES),kcat
1,"CCCCCCCCCCCCC/C=C/[C@@H](O)[C@@H](N)CO [Sphingosine, D-erythro-Sphingosine]",85 S^−1
2,"CCCCCCCCCCCCCCC[C@@H](O)[C@@H](N)CO [Dihydrosphingosine, D-erythro-dihydrosphingosine]",76 S^−1

# Same assay, conditions: bulk solution concentration
row,Structure (SMILES),Ki
1,"CCCCCCCCCCCCC/C=C/[C@@H](O)[C@H](CO)[N+](C)(C)C [N,N,N-trimethylsphingosine]",3.8 ± 1 µM

# Same assay, conditions: inhibitor 2 to 50 μM, mol % of Triton X-100
row,Structure (SMILES),Ki (mol %)
1,"CCCCCCCCCCCCC/C=C/[C@@H](O)[C@H](CO)[N+](C)(C)C [N,N,N-trimethylsphingosine]",0.10 ± 0.02 mol %

# Same assay, conditions: metal ions or EDTA at 10 mM
row,Structure (SMILES),Metal ion requirement (sphingosine kinase activity)
1,[Mg+2] [Mg^2+],highest activity
2,[Cu+2] [Cu^2−],did not support sphingosine kinase activity
3,[Mn+2] [Mn^2−],somewhat lower activity

# Same assay, conditions: substrate kinetics, bulk solution concentration
row,Structure (SMILES),Km
1,"CCCCCCCCCCCCCCC[C@@H](O)[C@@H](N)CO [Dihydrosphingosine, D-erythro-dihydrosphingosine]",19 ± 2 µM

# Same assay, conditions: substrate kinetics, mol % of Triton X-100 (0.25% w/v)
row,Structure (SMILES),Km (mol %)
1,"CCCCCCCCCCCCC/C=C/[C@@H](O)[C@@H](N)CO [Sphingosine, D-erythro-Sphingosine]",0.30 ± 0.07 mol %
2,"CCCCCCCCCCCCCCC[C@@H](O)[C@@H](N)CO [Dihydrosphingosine, D-erythro-dihydrosphingosine]",0.48 ± 0.05 mol %

# Same assay, conditions: substrates at 100 μM in 0.25% Triton X-100, relative to sphingosine
row,Structure (SMILES),Substrate specificity (phosphorylation by the enzyme)
1,"CCCCCCCCCCCCC/C=C/[C@@H](O)[C@@H](N)CO [Sphingosine, D-erythro-Sphingosine]",greatest activity
2,"CCCCCCCCCCCCC/C=C/[C@@H](O)[C@H](CO)[N+](C)(C)C [N,N,N-trimethylsphingosine]",not phosphorylated
3,CCCCCCCCCCCCCCC[C@H](O)[C@@H](N)CO (racemic) [DL-threo-dihydrosphingosine],not phosphorylated; also recorded: No phosphorylation
4,CCCCCCCCCCCCC/C=C/[C@@H](O)[C@H](CO)NC(C)=O [N-acetylsphingosine],not phosphorylated; also recorded: No phosphorylation
5,"CCCCCCCCCCCCCCC[C@@H](O)[C@@H](N)CO [Dihydrosphingosine, D-erythro-dihydrosphingosine]",greatest activity

# Same assay, conditions: substrates at 100 μM in 0.25% Triton X-100, relative to sphingosine, listed as N,N,N, -trimethylsphingosinei
row,Structure (SMILES),Substrate specificity (phosphorylation by the enzyme)
1,"CCCCCCCCCCCCC/C=C/[C@@H](O)[C@H](CO)[N+](C)(C)C [N,N,N-trimethylsphingosine]",No phosphorylation
